Data as given in patent US20250066353A1, “VANIN-1 INHIBITORS” (ATHOS THERAPEUTICS, INC., priority 2023, published 2025).

Biological target: Vanin-1 (Homo sapiens (Human), UniProt O95497)
Assay: VNN1 inhibitor binding assay (Pantothenate-AMC fluorescence)
Format: biochemical
Conditions: not given
Procedure: Vanin-1 inhibitor binding assays for selected compounds as described herein, and reference compound RR6 (also “(R)-2,4-dihydroxy-3,3-dimethyl-N-(3-oxo-4-phenylbutyl)butanamide”) were examined and the IC50 values of were determined.
5 μL of 3× (45 μM) of Pantothenate-AMC to achieve final concentrations of 15 μM (0.25% DMSO final) were added in a 384 well assay plate followed by the addition of 5 μL of 3× the desired concentration of the tested compounds (Compound 1; Compound 2; and RR6) in 0.75% DMSO to designated wells (0.25% of DMSO final). The range of the compound concentrations tested was 10, 3.33, 1.11, 0.37, 0.12, 0.04, 0.01, 0.0046, 0.001, and 0.0005 μM. 5 μL of 0.75% DMSO were also added to positive and negative control wells.
5 μL of 1.4 ng/μL Vanain-1 was added to the assay plate to achieve a final amount of 7 ng/well, and covered with plate sealer. Another 5 μL of assay buffer was added to negative controls and the assay plate was then centrifuged briefly (1000 rpm for 30 s) in a plate centrifuge. The assay plate was incubated in the dark for 20 minutes at room temperature and immediately read on an Envision 2105, PerkinElmer multimode plate reader.
The fluorescence read was captured at excitation wavelength of 355 nm and emission wavelength of 460 nm. Percent inhibition of the test compounds was calculated using the following equation: […]
In the above equation, “A” is the relative fluorescence units of the test compound (test compound+Pantothenate-AMC+Vanin1); “B” is the relative fluorescence units of the average minimum (DMSO+Pantothenate-AMC+assay buffer); and “C” is the relative fluorescence units of the average maximum (DMSO+Pantothenate-AMC+Vanin1).

Chain of Vanin-1 (O95497 22-513): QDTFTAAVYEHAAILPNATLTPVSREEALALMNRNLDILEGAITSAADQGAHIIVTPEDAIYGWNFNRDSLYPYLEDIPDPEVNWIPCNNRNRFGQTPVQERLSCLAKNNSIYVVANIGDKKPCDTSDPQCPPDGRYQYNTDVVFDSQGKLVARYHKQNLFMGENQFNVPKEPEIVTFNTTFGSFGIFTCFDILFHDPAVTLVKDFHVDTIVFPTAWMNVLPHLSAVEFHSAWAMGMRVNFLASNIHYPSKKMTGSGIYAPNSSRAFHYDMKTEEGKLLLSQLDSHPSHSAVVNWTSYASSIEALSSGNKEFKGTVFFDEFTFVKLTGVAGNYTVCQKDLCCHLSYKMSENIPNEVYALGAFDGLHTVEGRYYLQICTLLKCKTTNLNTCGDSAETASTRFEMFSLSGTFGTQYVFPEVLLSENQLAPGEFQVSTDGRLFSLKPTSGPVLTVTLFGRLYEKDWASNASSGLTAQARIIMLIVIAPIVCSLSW

Row | SMILES | IC50 [µM]
1 | CC(C)(CO)[C@@H](O)C(=O)NCCC(=O)Cc1ccccc1 [RR6, (R)-2,4-dihydroxy-3,3-dimethyl-N-(3-oxo-4-phenylbutyl)butanamide, reference compound] | 1 to 10

Same assay, conditions: 15 μM Pantothenate-AMC, 7 ng/well Vanin-1, 20 minutes at room temperature; read-out: Vanin-1 IC50

Row | SMILES | IC50 [µM]
2 | O=C1NCCc2nc(NCc3cccnc3)ccc21 [Compound 2, 2-((Pyridin-3-ylmethyl)amino)-7,8-dihydro-1,6-naphthyridin-5(6H)-one] | 1 to 10
3 | CC(C)N1Cc2nc(NCc3cccnc3)ccc2C1=O [Compound 19] | 1 to 10
4 | CCC(=O)NCCN1Cc2nc(NCc3cnccc3C(F)(F)F)ccc2C1=O [Compound 74, N-(2-(5-oxo-2-(((4-(trifluoromethyl)pyridin-3-yl)methyl)amino)-5,7-dihydro-6H-pyrrolo[3,4-b]pyridin-6-yl)ethyl)propionamide] | 1 to 10
5 | CN(C)CCCN1Cc2nc(NCc3cccnc3)ccc2C1=O [Compound 13, 6-(3-(Dimethylamino)propyl)-2-((pyridin-3-ylmethyl)amino)-6,7-dihydro-5H-pyrrolo[3,4-b]pyridin-5-one] | 1 to 10
6 | O=C1c2ccc(NCc3cccnc3)nc2CN1Cc1cnccn1 [Compound 17] | 1 to 10
7 | CC(=O)NC(C)(C)CN1Cc2nc(NCc3cccnc3)ccc2C1=O [Compound 38, N-(2-methyl-1-(5-oxo-2-((pyridin-3-ylmethyl)amino)-5,7-dihydro-6H-pyrrolo[3,4-b]pyridin-6-yl)propan-2-yl)acetamide] | 1 to 10
8 | CN(C)C(C)(C)CN1Cc2nc(NCc3cccnc3)ccc2C1=O [Compound 12, 6-(2-(Dimethylamino)-2-methylpropyl)-2-((pyridin-3-ylmethyl)amino)-6,7-dihydro-5H-pyrrolo[3,4-b]pyridin-5-one] | 1 to 10
9 | O=C1c2ccc(NCc3cccnc3)nc2CN1c1ccccc1 [Compound 11] | > 10
10 | CN(C)CCN1Cc2nc(NCc3cccnc3)ccc2C1=O [Compound 4, 6-(2-(Dimethylamino)ethyl)-2-((pyridin-3-ylmethyl)amino)-6,7-dihydro-5H-pyrrolo[3,4-b]pyridin-5-one] | 1 to 10

Other lines, results leading:

Row | IC50 [µM] | SMILES
11 | 1 to 10 | COc1ccccc1CNc1ccc2c(n1)CN(CCNC(C)=O)C2=O [Compound 28, N-(2-(2-((2-methoxybenzyl)amino)-5-oxo-5,7-dihydro-6H-pyrrolo[3,4-b]pyridin-6-yl)ethyl)acetamide]
12 | 1 to 10 | CC(=O)NCCCN1Cc2nc(NCc3cccnc3)ccc2C1=O [Compound 15, N-(3-(5-Oxo-2-((pyridin-3-ylmethyl)amino)-5,7-dihydro-6H-pyrrolo[3,4-b]pyridin-6-yl)propyl)acetamide]
13 | 1 to 10 | COc1ccc(F)cc1CNc1ccc2c(n1)CN(CCNC(C)=O)C2=O [Compound 29, N-(2-(2-((5-fluoro-2-methoxybenzyl)amino)-5-oxo-5,7-dihydro-6H-pyrrolo[3,4-b]pyridin-6-yl)ethyl)acetamide]
14 | 1 to 10 | CC(=O)NCCN1Cc2nc(NCc3ccc(C#N)nc3)ccc2C1=O [Compound 40, N-(2-(2-(((6-cyanopyridin-3-yl)methyl)amino)-5-oxo-5,7-dihydro-6H-pyrrolo[3,4-b]pyridin-6-yl)ethyl)acetamide]
15 | 1 to 10 | CC(=O)NCCN1Cc2nc(NCc3cnccn3)ccc2C1=O [Compound 50]
16 | 1 to 10 | CC(=O)NCCN1Cc2nc(NCc3ccncc3)ccc2C1=O [Compound 27, N-(2-(5-oxo-2-((pyridin-4-ylmethyl)amino)-5,7-dihydro-6H-pyrrolo[3,4-b]pyridin-6-yl)ethyl)acetamide]
17 | 1 to 10 | CC(=O)NCCN1Cc2nc(NCc3cncc(F)c3)ccc2C1=O [Compound 26, N-(2-(2-(((5-fluoropyridin-3-yl)methyl)amino)-5-oxo-5,7-dihydro-6H-pyrrolo[3,4-b]pyridin-6-yl)ethyl)acetamide]
18 | > 10 | N#Cc1cncc(CNc2ccc3c(n2)CN(CCNC(=O)C2CC2)C3=O)c1 [Compound 43, N-(2-(2-(((5-cyanopyridin-3-yl)methyl)amino)-5-oxo-5,7-dihydro-6H-pyrrolo[3,4-b]pyridin-6-yl)ethyl)cyclopropanecarboxamide]
19 | 1 to 10 | CC(=O)NCCN1Cc2nc(NCc3cc(F)c(F)c(F)c3)ccc2C1=O [Compound 71, N-(2-(5-oxo-2-((3,4,5-trifluorobenzyl)amino)-5,7-dihydro-6H-pyrrolo[3,4-b]pyridin-6-yl)ethyl)acetamide]
20 | 1 to 10 | CCC(=O)NCCN1Cc2nc(NCc3cc(F)c(F)c(F)c3)ccc2C1=O [Compound 72, N-(2-(5-oxo-2-((3,4,5-trifluorobenzyl)amino)-5,7-dihydro-6H-pyrrolo[3,4-b]pyridin-6-yl)ethyl)propionamide]
21 | 1 to 10 | CCC(=O)NCCN1Cc2nc(NCc3ccc(F)cc3C)ccc2C1=O [Compound 78, N-(2-(2-((4-fluoro-2-methylbenzyl)amino)-5-oxo-5,7-dihydro-6H-pyrrolo[3,4-b]pyridin-6-yl)ethyl)propionamide]
22 | > 10 | CC(=O)NCCN1Cc2nc(N[C@H](C)c3cccnc3)ccc2C1=O [Compound 22, (R)—N-(2-(5-oxo-2-((1-(pyridin-3-yl)ethyl)amino)-5,7-dihydro-6H-pyrrolo[3,4-b]pyridin-6-yl)ethyl)acetamide]

Same assay, conditions: comparison with reference compound RR6

Row | SMILES | potency (half-maximal inhibitory concentration) compared to RR6
23 | O=C1NCCc2nc(NCc3cccnc3)ccc21 [Compound 2, 2-((Pyridin-3-ylmethyl)amino)-7,8-dihydro-1,6-naphthyridin-5(6H)-one] | comparable to RR6
24 | O=C1NCc2nc(NCc3cccnc3)ccc21 [Compound 1, 2-((Pyridin-3-ylmethyl)amino)-6,7-dihydro-5H-pyrrolo[3,4-b]pyridin-5-one] | up to two orders of magnitude greater than RR6

System: not listed separately
Assay: PAMPA permeability assay
Format: in vitro ADME
Conditions: 20 μM donor in PBS/MeOH 90:10, 5 hours at room temperature
Source text: Parallel artificial membrane permeability (PAMPA) assay is a non-cell based assay designed to predict in vivo biological membrane permeability of drugs in early stage of drug discovery. The 96-well Corning Gentest Pre-coated PAMPA Plate System (catalog no. 353015) was used to perform the assay. The Corning Gentest Pre-coated PAMPA plate system was designed by 96-well insert system with a […] PVDF (polyvinylidene fluoride) filter plate which has been pre-coated with structured tri-layers of phospholipids (lipid/oil/lipid) and a matched receiver microplate.
Donor solutions of test compounds (300 μL, 20 μM in PBS/MeOH 90:10) were added to each well of the donor plate. 200 μL of PBS/MeOH 90:10 was added to each well of the acceptor plate. The acceptor plate was coupled with the donor plate and incubated for 5 hours at room temperature (RT) without agitation. In each plate, compounds were tested in triplicate. At the end of the incubation, drug concentration in the initial donor solution, acceptor and the donor wells were determined using LC/MS/MS. A five (5) points standard curve from 0.1 to 1000 nM for each test compound were prepared. Analyte samples were diluted to within standard curve concentration with ACN/H2O 50:50 prior analysis.
All samples were analyzed by electrospray ionization (ESI) liquid chromtograph/mass spectrometry (LC/MS) system utilizing Sciex 5500 quadropule ion trap (Qtrap) mass spectrometry with Shidmazu Nexera X2 UHPLC. The LC-MS/MS instrument monitored each of the test compound in the study based of their respective mass-to-charge (m/z) transitions and MS parameters. Chromatographic separation was achieved on Phenomenex Luna C18 column (50×2.0 mm, 3 μm particle size) by using a gradient elution: mobile phase A contains 0.1% formic acid in water and mobile phase B contains 0.1% formic acid in acetonitrile; A/B (99:1) from 0 to 1 minutes; to A/B (1:99) from 1 to 4 minutes; A/B (1:99) from 4 to 8 minutes; to A/B (99:1) from 8 to 8.20 minutes; A/B (99:1) from 8.2 to 9 minutes. The flow rate was 0.4 mL/min and the column temperature was maintained at 35° C. and autosampler temperature at 4° C. For detection, the electrospray ionization operated in the positive mode using multiple reaction monitoring (MRM).
Data acquisition, and peak integrations were obtained by Analyst® Version 1.7.1 (Sciex) operating with Windows® (Microsoft). The standard curve regressions and sample concentrations were generated and calculated by Analyst®. Concentrations in the sample solutions were determined based on the measured peak area ratios from the response of the analyte to the internal standard with reference to the standard calibration curve. All sample calculations were calculated using a linear regression with 1/x2 weighting (where x is the concentration of given calibration standard level).
Permeability of the test compounds was calculated using the following formula:
Where: • A=filter area=[…] • VA=acceptor well volume (0.2 mL) • VD=donor well volume […], • t=incubation time=5 hours=18000 seconds, • CA(t)=compound concentration in acceptor well at time t (nM), • CD(t)=compound concentration in donor well at time t (nM), and […]

Row | SMILES | Papp at 5 h, 20 µM [×10⁻⁶ cm/s]
25 | [2H]C([2H])([2H])C([2H])([2H])C(=O)NCCN1Cc2nc(NCc3c(F)cc(F)cc3F)ccc2C1=O [Compound 204, N-(2-(5-oxo-2-((2,4,6-trifluorobenzyl)amino)-5,7-dihydro-6H-pyrrolo[3,4-b]pyridin-6-yl)ethyl)propenamide-d5] | 1.07
26 | CCC(=O)NCCN1Cc2nc(NCc3c(F)cc(F)cc3F)ccc2C1=O [Compound 73, N-(2-(5-oxo-2-((2,4,6-trifluorobenzyl)amino)-5,7-dihydro-6H-pyrrolo[3,4-b]pyridin-6-yl)ethyl)propionamide] | 0.79

Now from value to molecule:

Row | Papp at 5 h, 20 µM [×10⁻⁶ cm/s] | SMILES
27 | 1.83 | [2H]C([2H])([2H])C(=O)NCCN1Cc2nc(NCc3c(F)cc(F)cc3F)ccc2C1=O [Compound 202, N-(2-(5-oxo-2-((2,4,6-trifluorobenzyl)amino)-5,7-dihydro-6H-pyrrolo[3,4-b]pyridin-6-yl)ethyl)acetamide-2,2,2-d3]
28 | 0.68 | CC(=O)NCCN1Cc2nc(NCc3c(F)cc(F)cc3F)ccc2C1=O [Compound 37, N-(2-(5-oxo-2-((2,4,6-trifluorobenzyl)amino)-5,7-dihydro-6H-pyrrolo[3,4-b]pyridin-6-yl)ethyl)acetamide]

Same assay, conditions: deuterated vs non-deuterated (Compounds 37 and 73, respectively)

Row | permeability compared to non-deuterated counterparts | SMILES
29 | improved permeability | [2H]C([2H])([2H])C(=O)NCCN1Cc2nc(NCc3c(F)cc(F)cc3F)ccc2C1=O [Compound 202, N-(2-(5-oxo-2-((2,4,6-trifluorobenzyl)amino)-5,7-dihydro-6H-pyrrolo[3,4-b]pyridin-6-yl)ethyl)acetamide-2,2,2-d3]
30 | improved permeability | [2H]C([2H])([2H])C([2H])([2H])C(=O)NCCN1Cc2nc(NCc3c(F)cc(F)cc3F)ccc2C1=O [Compound 204, N-(2-(5-oxo-2-((2,4,6-trifluorobenzyl)amino)-5,7-dihydro-6H-pyrrolo[3,4-b]pyridin-6-yl)ethyl)propenamide-d5]
